Data published in ChEMBL document CHEMBL1146737, “Discovery of a potent and selective alpha v beta 3 integrin antagonist with strong inhibitory activity against neointima formation in rat balloon injury model” (Bioorg Med Chem Lett, 2004).
Several values for one entry are separate records, joined by “and”; a condition that tells them apart may be missing. Equal entries are not always repeated.

Assays:
[1] = organism: Homo sapiens; test: Inhibition of human vascular smooth muscle proliferation was determined; assay type: functional; details: Muscle tissue
[2] = molecular target: Integrin alpha-IIb/beta-3 (Homo sapiens, UniProt P05106+P08514); test: Inhibitory activity was determined against human alpha IIb beta3 integrin; assay type: protein-complex assay
Sequence of Integrin alpha-IIb/beta-3 (P05106 27-788 limits assumed): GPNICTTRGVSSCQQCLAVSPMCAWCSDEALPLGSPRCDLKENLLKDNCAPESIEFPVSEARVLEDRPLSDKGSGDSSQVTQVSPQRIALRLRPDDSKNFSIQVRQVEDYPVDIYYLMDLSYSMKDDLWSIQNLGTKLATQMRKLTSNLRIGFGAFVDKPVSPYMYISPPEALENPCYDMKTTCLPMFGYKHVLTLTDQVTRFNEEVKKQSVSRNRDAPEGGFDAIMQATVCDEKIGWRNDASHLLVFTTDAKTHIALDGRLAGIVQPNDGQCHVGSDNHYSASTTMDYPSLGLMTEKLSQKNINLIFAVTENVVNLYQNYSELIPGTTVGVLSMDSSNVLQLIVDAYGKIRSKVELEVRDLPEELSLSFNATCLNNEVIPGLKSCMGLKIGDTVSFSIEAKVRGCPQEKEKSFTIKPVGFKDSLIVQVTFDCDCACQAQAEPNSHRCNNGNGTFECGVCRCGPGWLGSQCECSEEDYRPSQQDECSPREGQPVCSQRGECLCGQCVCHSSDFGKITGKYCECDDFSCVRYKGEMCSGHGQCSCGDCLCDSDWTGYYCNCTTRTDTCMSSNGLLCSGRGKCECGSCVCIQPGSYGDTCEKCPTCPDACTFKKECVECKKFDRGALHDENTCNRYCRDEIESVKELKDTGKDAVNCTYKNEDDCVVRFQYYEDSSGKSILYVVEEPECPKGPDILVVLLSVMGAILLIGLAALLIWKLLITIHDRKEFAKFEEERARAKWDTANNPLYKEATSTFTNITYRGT
Sequence of Integrin alpha-IIb/beta-3 (P08514 32-887 limits assumed): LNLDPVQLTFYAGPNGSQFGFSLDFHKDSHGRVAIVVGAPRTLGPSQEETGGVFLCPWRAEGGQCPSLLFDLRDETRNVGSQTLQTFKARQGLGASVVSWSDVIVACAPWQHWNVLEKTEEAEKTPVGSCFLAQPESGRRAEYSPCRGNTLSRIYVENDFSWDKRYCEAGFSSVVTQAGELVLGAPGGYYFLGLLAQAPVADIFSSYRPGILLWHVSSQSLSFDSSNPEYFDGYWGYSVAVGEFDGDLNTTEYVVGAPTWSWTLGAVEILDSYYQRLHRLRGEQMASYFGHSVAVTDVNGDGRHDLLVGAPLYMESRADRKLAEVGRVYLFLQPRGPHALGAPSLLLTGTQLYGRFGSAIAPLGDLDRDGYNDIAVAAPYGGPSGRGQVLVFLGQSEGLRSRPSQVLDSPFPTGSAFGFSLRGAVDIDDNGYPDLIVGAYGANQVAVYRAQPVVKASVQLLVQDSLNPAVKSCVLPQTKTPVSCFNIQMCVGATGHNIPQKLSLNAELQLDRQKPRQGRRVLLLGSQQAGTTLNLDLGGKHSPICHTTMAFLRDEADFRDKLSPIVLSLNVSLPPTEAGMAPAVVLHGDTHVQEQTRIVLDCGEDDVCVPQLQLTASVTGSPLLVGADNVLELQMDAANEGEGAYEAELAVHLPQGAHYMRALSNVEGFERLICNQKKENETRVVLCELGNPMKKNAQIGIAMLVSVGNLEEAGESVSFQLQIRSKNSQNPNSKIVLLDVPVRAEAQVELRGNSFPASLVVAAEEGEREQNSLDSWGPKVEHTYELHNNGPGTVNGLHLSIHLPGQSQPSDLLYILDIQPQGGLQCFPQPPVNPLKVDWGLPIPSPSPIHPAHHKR
Sequence of Integrin alpha-IIb/beta-3 (P08514 891-1039 limits assumed): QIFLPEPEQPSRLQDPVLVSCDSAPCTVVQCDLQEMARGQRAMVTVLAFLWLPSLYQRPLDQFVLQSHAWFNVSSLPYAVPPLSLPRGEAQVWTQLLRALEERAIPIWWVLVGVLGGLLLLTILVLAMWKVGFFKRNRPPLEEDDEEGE

[3] = molecular target: Integrin alpha-V/beta-3 and alpha-IIb/beta 3 (Homo sapiens) (UniProt P05106+P06756+P08514); test: Ratio of inhibitory activity against human alpha V beta-3 integrin to that of alpha IIb beta-3 integrin; assay type: protein assay
[4] = system: Rattus norvegicus; test: Antistenoic effect infused subcutaneously at a constant rate of 0.14 umol/rat/day; assay type: functional
[5] = system: Rattus norvegicus; test: Antistenoic effect infused subcutaneously at a constant rate of 0.43 umol/rat/day; assay type: functional
[6] = system: Rattus norvegicus; test: Antistenoic effect infused subcutaneously at a constant rate of 1.3 umol/rat/day; assay type: functional
[7] = system: Rattus norvegicus; test: Ratio of Intima area to media area was tested by subcutaneous infusion of compound at a constant rate of 1.3 umol/rat/day; assay type: functional
[8] = molecular target: Integrin alpha-V/beta-3 (Homo sapiens, UniProt P05106+P06756); test: Inhibitory activity was determined against human vitronectin receptor (alpha V beta 3); assay type: protein-complex assay
Sequence of Integrin alpha-V/beta-3 (P05106 27-788 limits assumed): as the sequence (P05106 27-788 limits assumed) above
Sequence of Integrin alpha-V/beta-3 (P06756 31-889 limits assumed): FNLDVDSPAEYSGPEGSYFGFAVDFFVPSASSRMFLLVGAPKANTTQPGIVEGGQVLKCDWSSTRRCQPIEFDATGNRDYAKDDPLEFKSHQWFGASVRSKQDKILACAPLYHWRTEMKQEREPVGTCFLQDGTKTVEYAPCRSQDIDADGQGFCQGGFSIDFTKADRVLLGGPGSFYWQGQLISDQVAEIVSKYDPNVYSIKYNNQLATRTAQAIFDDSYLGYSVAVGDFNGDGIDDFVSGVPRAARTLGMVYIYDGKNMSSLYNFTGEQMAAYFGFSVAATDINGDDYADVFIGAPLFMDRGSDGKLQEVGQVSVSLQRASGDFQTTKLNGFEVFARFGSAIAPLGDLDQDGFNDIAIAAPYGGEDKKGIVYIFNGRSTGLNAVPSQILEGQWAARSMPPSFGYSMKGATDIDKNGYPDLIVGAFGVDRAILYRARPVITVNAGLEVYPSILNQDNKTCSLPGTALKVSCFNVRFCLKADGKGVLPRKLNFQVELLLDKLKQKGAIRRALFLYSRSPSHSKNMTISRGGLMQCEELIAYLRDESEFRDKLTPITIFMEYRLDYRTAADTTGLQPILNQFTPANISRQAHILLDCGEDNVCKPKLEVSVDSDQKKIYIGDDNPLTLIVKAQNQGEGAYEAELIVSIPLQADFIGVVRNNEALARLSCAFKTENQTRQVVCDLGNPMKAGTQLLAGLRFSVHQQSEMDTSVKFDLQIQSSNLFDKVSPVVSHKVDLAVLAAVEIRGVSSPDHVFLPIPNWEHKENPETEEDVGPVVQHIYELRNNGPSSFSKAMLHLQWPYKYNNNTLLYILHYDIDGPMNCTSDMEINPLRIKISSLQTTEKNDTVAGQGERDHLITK
Sequence of Integrin alpha-V/beta-3 (P06756 891-1048 limits assumed): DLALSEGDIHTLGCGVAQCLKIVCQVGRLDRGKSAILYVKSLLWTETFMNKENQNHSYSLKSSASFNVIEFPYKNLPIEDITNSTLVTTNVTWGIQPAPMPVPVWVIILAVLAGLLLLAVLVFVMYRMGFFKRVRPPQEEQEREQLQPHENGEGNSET

| SMILES | IC50 [1] [nM] | IC50 [2] [nM] | Ratio [3] | Inhibition [4] [%] | Inhibition [5] [%] | Inhibition [6] | Intima area [6] | intima/media ratio [7] | IC50 [8] [nM] |
| --- | --- | --- | --- | --- | --- | --- | --- | --- | --- |
| CCOC(=O)N[C@@H](CCC(=O)N1CCN(c2cccc(NC3=NCCCN3)c2)CC1)C(=O)O | 2100 | > 1000 | > 1700 |  |  |  |  |  |  |
| CC(C)COC(=O)N[C@@H](CCC(=O)N1CCN(c2cccc(NC3=NCC(O)CN3)c2)CC1)C(=O)O (stereo partly specified) | 2000 | > 1000 | > 33000 |  |  |  |  |  |  |
| O=C(N[C@@H](CCC(=O)N1CCN(c2cccc(NC3=NCCCCN3)c2)CC1)C(=O)O)OCc1ccccc1 | 1700 | > 1000 | > 18000 |  |  |  |  |  |  |
| Cc1cc(C)c(S(=O)(=O)N[C@@H](CCC(=O)N2CCN(c3cccc(NC4=NCCCN4)c3)CC2)C(=O)O)c(C)c1 | > 10000 |  | 140 |  |  |  |  |  |  |
| CC(C)COC(=O)N[C@@H](CCC(=O)N1CCN(c2cccc(NC3=NCC(F)CN3)c2)CC1)C(=O)O (stereo partly specified) | 180 | > 1000 | > 18000 | 21 | 38 | 54% and 53% | 81 10e3 um2 and 162 10e3 um2 | 0.5 |  |
| O=C(Cc1ccccc1)N[C@@H](CCC(=O)N1CCN(c2cccc(NC3=NCCCN3)c2)CC1)C(=O)O | > 10000 | > 1000 | > 150 |  |  |  |  |  |  |
| O=C(N[C@@H](CCC(=O)N1CCN(c2cccc(NC3=NCC(O)CN3)c2)CC1)C(=O)O)OCc1ccccc1 (stereo partly specified) | 3500 |  | 2300 |  |  |  |  |  |  |
| CC(C)COC(=O)N[C@@H](CCC(=O)N1CCN(c2cccc(NC3=NCCCN3)c2)CC1)C(=O)O | 910 | > 1000 | > 3100 |  |  |  |  |  |  |
| CC(C)COC(=O)N[C@@H](CCC(=O)N1CCN(c2cccc(NC3=NCC(C)(C)CN3)c2)CC1)C(=O)O | 3400 | > 1000 | > 2600 |  |  |  |  |  |  |
| CCNC(=O)N[C@@H](CCC(=O)N1CCN(c2cccc(NC3=NCCCN3)c2)CC1)C(=O)O | > 10000 | > 1000 | > 280 |  |  |  |  |  |  |
| O=C(O)[C@H](CCC(=O)N1CCN(c2cccc(NC3=NCCCN3)c2)CC1)NS(=O)(=O)c1ccccc1 | > 10000 | 88 | 63 |  |  |  |  |  | 1.4 |
| O=C(NCc1ccccc1)N[C@@H](CCC(=O)N1CCN(c2cccc(NC3=NCCCN3)c2)CC1)C(=O)O | > 10000 | > 1000 | > 710 |  |  |  |  |  |  |
| O=C(N[C@@H](CCC(=O)N1CCN(c2cccc(NC3=NCC(F)CN3)c2)CC1)C(=O)O)OCc1ccccc1 (stereo partly specified) | 260 |  | 8600 |  |  | 38% and 34% | 113 10e3 um2 and 149 10e3 um2 | 0.76 |  |
| O=C(N[C@@H](CCC(=O)N1CCN(c2cccc(NC3=NCCCN3)c2)CC1)C(=O)O)OCc1ccccc1 | 1100 | 660 | 11000 |  |  |  |  |  | 0.058 |
| O=C(N[C@@H](CCC(=O)N1CCN(c2cccc(NC3=NCCN3)c2)CC1)C(=O)O)OCc1ccccc1 | 3000 |  | 4500 |  |  |  |  |  |  |
